The values below are quoted from earlier work in PMC8287861 (Frontiers in Microbiology, 2021).

≈ marks a conversion by molar mass, not a printed value.

Design in all cases: method as in Lomovskaya et al. (2020b)
One series concerns PAM4198 IMP-15. The note with it: PAM4198, IMP-15, class B1; ref Lomovskaya et al. (2020b).
For a further series, the system named is PAM4912 VEB-3. The note with it: PAM4912, VEB-3, class A; ref Lomovskaya et al. (2020b).
The next series deals with PAM4880 L1. The note with it: PAM4880, L1, class B3; ref Lomovskaya et al. (2020b).
The test system of the next series is PAM4689 KPC-3. Conditions: PAM4689, KPC-3, class A-CARB; ref Lomovskaya et al. (2020b).
The subject of a further series is PAM4840 OXY-6-2. Conditions: PAM4840, OXY-6-2, class A; ref Lomovskaya et al. (2020b).
Another series deals with PAM4885 SPM-1. The note with it: PAM4885, SPM-1, class B1; ref Lomovskaya et al. (2020b).
For another series, the system named is PAM4910 VEB-2. The note with it: PAM4910, VEB-2, class A; ref Lomovskaya et al. (2020b).
A further series relates to PAM4881 VIM-7. Conditions: PAM4881, VIM-7, class B1; ref Lomovskaya et al. (2020b).
A further series concerns PAM4745 P99. The note with it: PAM4745, P99, class C; ref Lomovskaya et al. (2020b).
The subject of another series is PAM4908 VEB-1. The note with it: PAM4908, VEB-1, class A; ref Lomovskaya et al. (2020b).
In a further series the test system is PAM4889 IMP-26. The note with it: PAM4889, IMP-26, class B1; ref Lomovskaya et al. (2020b).
Another series has as its system PAM4887 IMP-1. The note with it: PAM4887, IMP-1, class B1; ref Lomovskaya et al. (2020b).
Another series relates to PAM4869 PDC-1. The note with it: PAM4869, PDC-1, class C; ref Lomovskaya et al. (2020b).
The next series concerns PAM4819 CTX-M-2. Conditions: PAM4819, CTX-M-2, class A; ref Lomovskaya et al. (2020b).
For a further series, the system named is PAM4938 VEB-9. Conditions: PAM4938, VEB-9, class A; ref Lomovskaya et al. (2020b).
The test system of the next series is PAM4917 NDM-7. Conditions: PAM4917, NDM-7, class B1; ref Lomovskaya et al. (2020b).
For the next series, the system named is PAM4874 SHV-12. The note with it: PAM4874, SHV-12, class A; ref Lomovskaya et al. (2020b).
A further series concerns PAM4842 PER-2. Conditions: PAM4842, PER-2, class A; ref Lomovskaya et al. (2020b).
The test system of the next series is PAM4822 CTX-M-27. The note with it: PAM4822, CTX-M-27, class A; ref Lomovskaya et al. (2020b).
For the next series, the system named is PAM4794 NMC-1. The note with it: PAM4794, NMC-1, class A-CARB; ref Lomovskaya et al. (2020b).
The next series deals with PAM4798 VIM-2. The note with it: PAM4798, VIM-2, class B1; ref Lomovskaya et al. (2020b).
The test system of a further series is PAM4883 GIM-1. The note with it: PAM4883, GIM-1, class B1; ref Lomovskaya et al. (2020b).
Another series has as its system PAM4175 pUCP24 vector. Conditions: ref Lomovskaya et al. (2020b).

Regarding `CC(C)(O/N=C(\C(=O)N[C@@H]1C(=O)N2C(C(=O)[O-])=C(C[n+]3ccccc3)CS[C@H]12)c1csc(N)n1)C(=O)O` [Ceftazidime, ceftazidime], the MIC is 64 µg/mL (≈ 117 µM) with PAM4198 IMP-15; above 64 µg/mL with PAM4912 VEB-3; 64 µg/mL (≈ 117 µM) in the series with PAM4880 L1; above 64 µg/mL in the series on PAM4689 KPC-3; 0.5 µg/mL (≈ 0.915 µM) in the series on PAM4840 OXY-6-2; above 64 µg/mL with PAM4885 SPM-1. Further, the minimal inhibitory concentration (MIC) in the series with PAM4910 VEB-2 was above 64 µg/mL; in the series on PAM4881 VIM-7, 0.5 µg/mL (≈ 0.915 µM); in the series with PAM4745 P99 it was 64 µg/mL (≈ 117 µM); in the series on PAM4908 VEB-1, above 64 µg/mL; in the series on PAM4889 IMP-26 it was above 64 µg/mL; in the series on PAM4887 IMP-1, above 64 µg/mL. For the same compound, the minimal inhibitory concentration (MIC) with PAM4869 PDC-1 was 16 µg/mL (≈ 29.3 µM); in the series with PAM4819 CTX-M-2, 1 µg/mL (≈ 1.83 µM); with PAM4938 VEB-9 it was 256 µg/mL (≈ 468 µM); in the series with PAM4917 NDM-7 it was above 64 µg/mL; in the series with PAM4874 SHV-12 it was above 64 µg/mL; in the series on PAM4842 PER-2, above 64 µg/mL. Moreover, the MIC in the series on PAM4822 CTX-M-27 is 64 µg/mL (≈ 117 µM); with PAM4794 NMC-1 it was 1 µg/mL (≈ 1.83 µM); in the series with PAM4798 VIM-2 it was 16 µg/mL (≈ 29.3 µM); in the series on PAM4883 GIM-1, above 64 µg/mL; with PAM4175 pUCP24 vector, 0.25 µg/mL (≈ 0.457 µM).
Regarding `CCN1CCN(C(=O)N[C@@H](C(=O)N[C@@H]2C(=O)N3[C@@H]2SC(C)(C)[C@@H]3C(=O)O)c2ccccc2)C(=O)C1=O` [Piperacillin, piperacillin], the MIC is 0.5 µg/mL (≈ 0.966 µM) with PAM4198 IMP-15; 8 µg/mL (≈ 15.5 µM) in the series on PAM4912 VEB-3; 32 µg/mL (≈ 61.8 µM) in the series with PAM4880 L1; above 64 µg/mL in the series on PAM4689 KPC-3; above 64 µg/mL in the series on PAM4840 OXY-6-2; 32 µg/mL (≈ 61.8 µM) in the series on PAM4885 SPM-1. Besides, the MIC in the series with PAM4910 VEB-2 is 16 µg/mL (≈ 30.9 µM); in the series with PAM4881 VIM-7, 2 µg/mL (≈ 3.86 µM); with PAM4745 P99, 64 µg/mL (≈ 124 µM); in the series with PAM4908 VEB-1, 8 µg/mL (≈ 15.5 µM); with PAM4889 IMP-26, 0.125 µg/mL (≈ 0.242 µM); in the series on PAM4887 IMP-1, 1 µg/mL (≈ 1.93 µM). The minimum inhibitory concentration (MIC) with PAM4869 PDC-1 was above 64 µg/mL; in the series on PAM4819 CTX-M-2 it was 64 µg/mL (≈ 124 µM); in the series with PAM4938 VEB-9, 16 µg/mL (≈ 30.9 µM); in the series with PAM4917 NDM-7 it was 32 µg/mL (≈ 61.8 µM); in the series with PAM4874 SHV-12, above 64 µg/mL; in the series on PAM4842 PER-2, 1 µg/mL (≈ 1.93 µM). Besides, the MIC is above 64 µg/mL with PAM4822 CTX-M-27; 16 µg/mL (≈ 30.9 µM) with PAM4794 NMC-1; 16 µg/mL (≈ 30.9 µM) with PAM4798 VIM-2; above 64 µg/mL in the series with PAM4883 GIM-1; 0.125 µg/mL (≈ 0.242 µM) in the series with PAM4175 pUCP24 vector.

The term MIC denotes the smallest concentration in the dilution series that meets the test's criterion for growth inhibition.
